Experimental findings from ChEMBL document CHEMBL1201862, “PubChem BioAssay data set” (2004) are described below.

Test systems include 786-0; A549; HCT-116; HL-60; HOP-62; HT-29; K562; KM12; NCI-H460; NCI-H522; NCI/ADR-RES; OVCAR-3; PC-3; RPMI-8226; RXF 393; SK-MEL-2; SW-620; TK-10; SK-OV-3.
Holding throughout (assay): NCI-60 cell line screen, 48 h

The structures appear in SMILES notation.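 Protocol summary: plate cells (96-well), add compound at 5 concentrations, incubate 48 h, interpolate endpoints linearly. Abbreviation: GI50, concentration required for 50% inhibition of growth.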 The source made the active and inactive calls. Cut-off read from the data, not from the text of the source: active = GI50 up to about 1.1 µM and inactive = higher.

`CN(C)CCNC(=O)c1cccc2[nH]c(-c3ccncc3)nc12`: the GI50 in the test on 786-0 was 2.04 µM (inactive); with A549, 5.78 µM (inactive); in the test on HCT-116, 4.07 µM (inactive); with HL-60 it was 1.01 µM (active); in the test on HOP-62, 18.7 µM (inactive); with HT-29, 2.61 µM (inactive). Further, the GI50 was 2.64 µM (inactive) in the test with K562; 4.17 µM (inactive) in the test with KM12; 2.78 µM (inactive) in the test with NCI-H460; 1.88 µM (inactive) in the test with NCI-H522; 13.2 µM (inactive) with NCI/ADR-RES; 9.62 µM (inactive) in the test on OVCAR-3. The GI50 is 3.83 µM (inactive) with PC-3; 3 µM (inactive) in the test on RPMI-8226; 5.58 µM (inactive) in the test on RXF 393; 4.28 µM (inactive) in the test with SK-MEL-2; 3.19 µM (inactive) in the test with SW-620; 6.5 µM (inactive) in the test on TK-10.

For `CN1CCc2c(sc3ncn(Nc4ccc(F)cc4)c(=N)c23)C1`, the GI50 with 786-0, with A549, in the test with HCT-116, in the test on HL-60, with HOP-62 and in the test on HT-29 was > 100 µM (inactive) throughout. The GI50 with K562 is > 100 µM (inactive); in the test with KM12, > 100 µM (inactive); with NCI-H460 it was > 100 µM (inactive); in the test with NCI-H522 it was 65 µM (inactive); in the test with NCI/ADR-RES, > 100 µM (inactive); with OVCAR-3, > 100 µM (inactive). Moreover, the GI50 in the test with PC-3, in the test on RPMI-8226, in the test on RXF 393, in the test on SK-MEL-2, with SK-OV-3 and in the test with SW-620 was > 100 µM (inactive) in each case. For the same molecule, the GI50 with TK-10 was > 100 µM (inactive).

For `Cc1nc2ccc(Cl)cc2c2c1CCN2c1ccc(F)cc1`, the GI50 with 786-0 was 11.8 µM (inactive); in the test with A549 it was 43.5 µM (inactive); in the test with HCT-116, 5.75 µM (inactive); in the test with HL-60 it was 17.1 µM (inactive); in the test with HOP-62, 18.9 µM (inactive); in the test with HT-29 it was 4.94 µM (inactive). For the same molecule, the GI50 in the test on K562 was 5.35 µM (inactive); with KM12, 25.8 µM (inactive); in the test on NCI-H460, 7.03 µM (inactive); with NCI-H522, 44.2 µM (inactive); with NCI/ADR-RES, 13 µM (inactive); with OVCAR-3, 21.8 µM (inactive). The GI50 with PC-3 was 11 µM (inactive); in the test with RPMI-8226 it was 8.24 µM (inactive); with RXF 393, 17.1 µM (inactive); in the test on SK-MEL-2, 23 µM (inactive); with SK-OV-3, > 100 µM (inactive); in the test on SW-620, 27.1 µM (inactive). The GI50 with TK-10 was 18.1 µM (inactive).

In the case of `COc1cc(CN(C)N2C(=O)c3cccc4cc([N+](=O)[O-])cc(c34)C2=O)cc(OC)c1OC`, the GI50 in the test with HL-60 is > 100 µM (inactive); in the test with HOP-62, 16.7 µM (inactive); in the test with HT-29, > 100 µM (inactive); in the test with K562 it was > 100 µM (inactive); with KM12, > 100 µM (inactive); in the test on NCI-H460, > 100 µM (inactive). The GI50 in the test with NCI-H522 is 70.3 µM (inactive); in the test with NCI/ADR-RES, > 100 µM (inactive); with OVCAR-3, > 100 µM (inactive); with PC-3, > 100 µM (inactive); with RPMI-8226, > 100 µM (inactive); in the test with RXF 393, 14.1 µM (inactive). The GI50 was > 100 µM (inactive) in the test on SK-MEL-2 and 44.1 µM (inactive) in the test on SK-OV-3.

As to `O=C1CSC2(CC(/C=C/C=C/c3ccccc3)=NN2c2cccc(S(=O)(=O)O)c2)N1c1nc2ccccc2s1` (centres undefined), the GI50 in the test on 786-0 is 40.2 µM (inactive); in the test with A549, 50.8 µM (inactive); in the test with HCT-116, 46.5 µM (inactive); in the test on HL-60 it was 4.24 µM (inactive); with HT-29, 64.3 µM (inactive); in the test with K562, 29 µM (inactive). Besides, the GI50 in the test on KM12 was 45.8 µM (inactive); in the test on NCI-H460 it was 31.3 µM (inactive); in the test on NCI-H522, 4.71 µM (inactive); in the test with NCI/ADR-RES it was 51.1 µM (inactive); with PC-3, 37.3 µM (inactive); in the test with RPMI-8226, 21.2 µM (inactive). The GI50 with RXF 393 is > 100 µM (inactive); in the test with SK-MEL-2 it was 26 µM (inactive); in the test with SW-620 it was 56.2 µM (inactive); in the test with TK-10, 34.5 µM (inactive).

On to `OCCCNCC(O)c1ccc(OCc2ccccc2)c(OCc2ccccc2)c1` (centres undefined), for which the GI50 was 7.48 µM (inactive) with 786-0; 11.6 µM (inactive) in the test with A549; 8.47 µM (inactive) in the test with HCT-116; 6.38 µM (inactive) in the test on HL-60; 14.3 µM (inactive) in the test with HOP-62; 8.24 µM (inactive) in the test on HT-29. Further, the GI50 in the test with K562 is 8.45 µM (inactive); in the test with KM12, 12.5 µM (inactive); in the test on NCI-H460 it was 7.52 µM (inactive); with NCI-H522 it was 14.1 µM (inactive); with NCI/ADR-RES, 18.7 µM (inactive); in the test with OVCAR-3, 15.9 µM (inactive). The GI50 in the test with PC-3 is 10.9 µM (inactive); in the test with RPMI-8226 it was 8.47 µM (inactive); in the test with RXF 393 it was 23.4 µM (inactive); in the test with SK-MEL-2 it was 8.02 µM (inactive); in the test with SK-OV-3, 9.51 µM (inactive); in the test on SW-620, 8.34 µM (inactive). Further, the GI50 in the test with TK-10 is 7.91 µM (inactive).

`COC(=O)[C@@H]1CO[C@H](C(C)(C)C)N1C(=O)N1C=CC(=O)C[C@H]1C`: the GI50 in the test with 786-0, in the test on A549, with HCT-116, in the test on HL-60, in the test with HOP-62 and in the test on HT-29 was > 100 µM (inactive) throughout. The GI50 in the test with K562, with KM12, in the test with NCI-H522, in the test on NCI/ADR-RES, in the test on OVCAR-3 and in the test with PC-3 was > 100 µM (inactive) each time. Moreover, the GI50 in the test with RPMI-8226, in the test with RXF 393, in the test on SK-MEL-2, with SK-OV-3, in the test with SW-620 and with TK-10 was > 100 µM (inactive) throughout.

With `Cc1ccc2c(c1C)C(=O)C1(Cc3cc4c(cc3C1=O)CCC4)C2` (centres undefined), the GI50 in the test with 786-0, with A549, with HCT-116, with HL-60, in the test on HT-29 and in the test with K562 was > 100 µM (inactive) in each case. In addition, the GI50 in the test on KM12 was > 100 µM (inactive); with NCI-H460, > 100 µM (inactive); in the test with NCI-H522, > 100 µM (inactive); in the test with NCI/ADR-RES, > 100 µM (inactive); in the test with OVCAR-3 it was 87.9 µM (inactive); in the test on PC-3, > 100 µM (inactive). Also, the GI50 in the test with RPMI-8226 was > 100 µM (inactive); in the test with RXF 393, 99.8 µM (inactive); in the test with SK-MEL-2, > 100 µM (inactive); in the test with SK-OV-3, > 100 µM (inactive); with SW-620, > 100 µM (inactive); in the test with TK-10 it was > 100 µM (inactive).

As for `O=c1oc2cc(/N=C/c3ccccc3Cl)ccc2c2ccccc12`, the GI50 in the test with 786-0 is > 100 µM (inactive); with A549, > 100 µM (inactive); in the test with HCT-116 it was 71.3 µM (inactive); with HL-60, 57.1 µM (inactive); with HOP-62, > 100 µM (inactive); in the test on HT-29, > 100 µM (inactive). Further, the GI50 is 45.9 µM (inactive) with K562; > 100 µM (inactive) in the test with KM12; > 100 µM (inactive) in the test on NCI-H460; > 100 µM (inactive) with NCI-H522; > 100 µM (inactive) in the test with NCI/ADR-RES; > 100 µM (inactive) in the test on OVCAR-3. Further, the GI50 with PC-3 is 98.6 µM (inactive); with RPMI-8226 it was > 100 µM (inactive); in the test on RXF 393 it was > 100 µM (inactive); in the test on SK-MEL-2, > 100 µM (inactive); with SW-620, > 100 µM (inactive).

As to `Cc1cc(-c2nc3cc(F)ccc3s2)ccc1N`, the GI50 with 786-0 is 22.2 µM (inactive); in the test on A549 it was 6.17 µM (inactive); in the test with HCT-116 it was 21.1 µM (inactive); with HL-60, > 28.1 µM (inactive); with HOP-62, 15.2 µM (inactive); in the test on HT-29, 29 µM (inactive). The GI50 in the test on K562 was > 49.2 µM (inactive); in the test with KM12 it was 42.8 µM (inactive); in the test on NCI-H460 it was < 0.017 µM (active); with NCI-H522, 16.9 µM (inactive); in the test with NCI/ADR-RES it was 75.9 µM (inactive); in the test with OVCAR-3, 28.7 µM (inactive). Also, the GI50 in the test on PC-3 is 17 µM (inactive); in the test on RPMI-8226, > 31.3 µM (inactive); in the test on RXF 393 it was 17.2 µM (inactive); in the test on SK-MEL-2, 34.6 µM (inactive); in the test with SK-OV-3, 88.5 µM (inactive); in the test on SW-620, > 100 µM (inactive). Besides, the GI50 in the test on TK-10 was < 0.01 µM (active).

With `CS(=O)(=O)c1ccc2nc(-c3ccc(O)cc3)sc2c1`, the GI50 was 16.4 µM (inactive) in the test on A549; 16.8 µM (inactive) in the test on HCT-116; 21.2 µM (inactive) in the test on HL-60; 13.2 µM (inactive) in the test with HT-29; 33.8 µM (inactive) in the test with K562; 16 µM (inactive) with KM12. For the same molecule, the GI50 is 19.4 µM (inactive) in the test on NCI-H460; 13.9 µM (inactive) with NCI-H522; 13.8 µM (inactive) with NCI/ADR-RES; 16.6 µM (inactive) in the test with OVCAR-3; 17.5 µM (inactive) with PC-3; 15.7 µM (inactive) in the test with RPMI-8226. The GI50 in the test with RXF 393 is 16.9 µM (inactive); with SK-MEL-2, 20 µM (inactive); in the test on SK-OV-3, 17.5 µM (inactive); in the test with SW-620, 20.7 µM (inactive); in the test on TK-10 it was 16.3 µM (inactive).
